Measured values reported in patent US20060035847A1, “Glucopyranosyloxyprazole derivatives and use thereof in medicines” (KISSEI PHARMACEUTICAL CO., LTD., priority 2000, published 2006).
pIC50: −log10 of the molar value.

These compounds were tested against T1, human SGLT2 (Homo sapiens, UniProt P31639, I433V) (assay: Assay for inhibitory effect on human SGLT2 activity (methyl-α-D-glucopyranoside uptake in COS-7 cells transiently expressing human SGLT2)). Conditions: inhibition of methyl-α-D-glucopyranoside uptake, COS-7 cells expressing human SGLT2, 37° C., 2 hours.
T1 construct: expressed in transfected cells; host or cells: COS-7 cells (RIKEN CELL BANK RCB0539), transient, electroporation
T1 sequence (P31639 1-672 I433V): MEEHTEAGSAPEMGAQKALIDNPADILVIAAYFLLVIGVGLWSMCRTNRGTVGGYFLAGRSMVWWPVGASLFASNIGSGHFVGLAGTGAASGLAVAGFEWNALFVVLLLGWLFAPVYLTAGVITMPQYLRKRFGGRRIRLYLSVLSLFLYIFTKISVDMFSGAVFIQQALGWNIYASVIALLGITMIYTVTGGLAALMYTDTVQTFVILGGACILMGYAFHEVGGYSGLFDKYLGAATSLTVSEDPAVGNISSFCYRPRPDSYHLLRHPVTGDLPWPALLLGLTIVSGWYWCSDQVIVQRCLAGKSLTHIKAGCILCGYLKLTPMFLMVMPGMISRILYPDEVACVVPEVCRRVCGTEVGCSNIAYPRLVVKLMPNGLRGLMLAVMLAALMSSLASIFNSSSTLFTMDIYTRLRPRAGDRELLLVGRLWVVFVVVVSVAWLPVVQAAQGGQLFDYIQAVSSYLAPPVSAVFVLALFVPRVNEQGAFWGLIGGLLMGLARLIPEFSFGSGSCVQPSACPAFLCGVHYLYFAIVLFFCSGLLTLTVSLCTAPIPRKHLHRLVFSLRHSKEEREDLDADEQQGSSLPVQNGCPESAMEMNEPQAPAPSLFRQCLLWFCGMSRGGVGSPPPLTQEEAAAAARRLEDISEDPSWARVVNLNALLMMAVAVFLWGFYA
Type: cell-based
Method: Assay for Inhibitory Effect on Human SGLT2 Activity
1) Construction of the Plasmid Vector Expressing Human SGLT2
Preparation of the cDNA library for PCR amplification was performed by reverse transcription of a total RNA deprived from human kidney (Ori gene) with oligo dT as the primer, using SUPERSCRIPT Preamplification System (Gibco-BRL: LIFE TECHNOLOGIES). The DNA fragment coding for human SGLT2 was amplified by the PCR reaction, in which the human kidney cDNA library described above was used as the template and the following oligo nucleotides 0702F and 0712R, presented as sequence number 1 and 2 respectively, were used as the primers. The amplified DNA fragment was ligated into pCR-Blunt (Invitrogen), a vector for cloning, according to standard method of the kit. The Escherichia coli HB101 was transformed according to usual method and then selection of the transformants was performed on the LB agar medium containing 50 μg/mL of kanamycin. After plasmid DNA was extracted and purified from the one of the transformants, amplifying of the DNA fragment coding for human SGLT2 was performed by the PCR reaction, in which the following oligo nucleotides 0714F and 0715R, presented as sequence number 3 and 4 respectively, were used as the primers. The amplified DNA fragment was digested with restriction enzymes, Xho I and Hind III, and then purified with Wizard Purification System (Promega). This purified DNA fragment was inserted at into the corresponding restriction sites of pcDNA3.1 (−) Myc/His—B (Invitrogen), a vector for expressing of fusion protein. The Escherichia coli HB101 was transformed according to usual method and then selection of the transformant was performed on the LB agar medium containing 100 μg/mL of ampicillin. After plasmid DNA was extracted and purified from this transformant, the base sequence of the DNA fragment inserted at the multi-cloning sites of the vector pcDNA3.1 (−) Myc/His—B was analyzed. […] Sequentially, a clone in which valine is substituted for isoleucine-433 was obtained. This plasmid vector expressing human SGLT2 in which the peptide presented as sequence number 5 is fused to the carboxyl terminal alanine residue was designated KL29.
2) Preparation of the Cells Expressing Transiently Human SGLT2
KL29, the plasmid coding human SGLT2, was transfected into COS-7 cells (RIKEN CELL BANK RCB0539) by electroporation. Electroporation was performed with GENE PULSER II (Bio-Rad Laboratories) under the condition: 0.290 kV, 975 μF, 2×10^6 cells of COS-7 cell and 20 μg of KL29 in 500 μL of OPTI-MEM I medium (Gibco-BRL: LIFE TECHNOLOGIES) in the 0.4 cm type cuvette. After the gene transfer, the cells were harvested by centrifugation and resuspended with OPTI-MEM I medium (1 mL/cuvette). To each well in 96-wells plate, 125 μL of this cell suspension was added. After overnight culture at 37° C. under 5% CO2, 125 μL of DMEM medium which is containing 10% of fetal bovine serum (Sanko Jyunyaku), […] sodium penicillin G (Gibco-BRL: LIFE TECHNOLOGIES), 100 μg/mL streptomycin sulfate (Gibco-BRL: LIFE TECHNOLOGIES) was added to each well. These cells were cultured until the next day and then they were used for the measurement of the inhibitory activity against the uptake of methyl-α-D-glucopyranoside.
3) Measurement of the Inhibitory Activity Against the Uptake of methyl-α-D-glucopyranoside
After a test compounds was dissolved in dimethyl sulfoxide and diluted with the uptake buffer (a pH 7.4 buffer containing 140 mM sodium chloride, 2 mM potassium chloride, 1 mM calcium chloride, 1 mM magnesium chloride, 5 mM methyl-α-D-glucopyranoside, 10 mM 2-[4-(2-hydroxyethyl)-1-piperazinyl]ethane sulfonic acid and 5 mM tris(hydroxymethyl)aminomethane), each diluent was used as test sample for measurement of the inhibitory activity. […]

SMILES | pIC50
CCc1[nH]nc(O[C@@H]2O[C@H](CO)[C@@H](O)[C@H](O)[C@H]2O)c1Cc1ccc(SC)cc1 [Reference Example 46, 5-Ethyl-3-(β-D-glucopyranosyloxy)-4-[(4-methylthiophenyl)-methyl]-1H-pyrazole] | 6.29
CCCOc1ccc(Cc2c(O[C@@H]3O[C@H](CO)[C@@H](O)[C@H](O)[C@H]3O)n[nH]c2C)cc1 [Reference Example 40, 3-(β-D-Glucopyranosyloxy)-5-methyl-4-[(4-propoxyphenyl)-methyl]-1H-pyrazole] | 6.15
Cc1[nH]nc(O[C@@H]2O[C@H](CO)[C@@H](O)[C@H](O)[C@H]2O)c1Cc1ccc(OC(C)C)cc1 [Reference Example 37, 3-(β-D-Glucopyranosyloxy)-4-[(4-isopropoxyphenyl)methyl]-5-methyl-1H-pyrazole] | 6.74
CCOc1ccc(Cc2c(O[C@@H]3O[C@H](CO)[C@@H](O)[C@H](O)[C@H]3O)n[nH]c2C)cc1 [Reference Example 41, 4-[(4-Ethoxyphenyl)methyl]-3-(β-D-glucopyranosyloxy)-5-methyl-1H-pyrazole] | 6.73
CSc1ccc(Cc2c(O[C@@H]3O[C@H](CO)[C@@H](O)[C@H](O)[C@H]3O)n[nH]c2C)cc1 [Reference Example 45, 3-(β-D-Glucopyranosyloxy)-5-methyl-4-[(4-methylthiophenyl)-methyl]-1H-pyrazole] | 7.08
CSc1ccc(Cc2c(O[C@@H]3O[C@H](CO)[C@@H](O)[C@H](O)[C@H]3O)n[nH]c2C(F)(F)F)cc1 [Reference Example 48, 3-(β-D-Glucopyranosyloxy)-4-[(4-methylthiophenyl)methyl]-5-trifluoromethyl-1H-pyrazole] | 6.17
Cc1ccc(Cc2c(O[C@@H]3O[C@H](CO)[C@@H](O)[C@H](O)[C@H]3O)n[nH]c2C)cc1 [Reference Example 57, 3-(β-D-Glucopyranosyloxy)-5-methyl-4-[(4-methylphenyl)-methyl]-1H-pyrazole] | 6.55
CCc1ccc(Cc2c(O[C@@H]3O[C@H](CO)[C@@H](O)[C@H](O)[C@H]3O)n[nH]c2C)cc1 [Reference Example 58, 4-[(4-Ethylphenyl)methyl]-3-(β-D-glucopyranosyloxy)-5-methyl-1H-pyrazole] | 6.72
Cc1[nH]nc(O[C@@H]2O[C@H](CO)[C@@H](O)[C@H](O)[C@H]2O)c1Cc1ccc(C(C)C)cc1 [Reference Example 47, 3-(β-D-Glucopyranosyloxy)-4-[(4-isopropylphenyl)methyl]-5-methyl-1H-pyrazole] | 6.36
CCCc1ccc(Cc2c(O[C@@H]3O[C@H](CO)[C@@H](O)[C@H](O)[C@H]3O)n[nH]c2C)cc1 [Reference Example 38, 3-(β-D-Glucopyranosyloxy)-5-methyl-4-[(4-propylphenyl)-methyl]-1H-pyrazole] | 6.36
CSc1ccc(Cc2c(O[C@@H]3O[C@H](CO)[C@@H](O)[C@H](O)[C@H]3O)nn(C)c2C(F)(F)F)cc1 [Reference Example 54, 3-(β-D-Glucopyranosyloxy)-1-methyl-4-[(4-methylthiophenyl)-methyl]-5-trifluoromethylpyrazole] | 6.08
CCc1ccc(Cc2c(O[C@@H]3O[C@H](CO)[C@@H](O)[C@H](O)[C@H]3O)n[nH]c2C(F)(F)F)cc1 [Reference Example 60, 4-[(4-Ethylphenyl)methyl]-3-(β-D-glucopyranosyloxy)-5-trifluoromethyl-1H-pyrazole] | 6.20
Cc1c(Cc2ccc(OC(C)C)cc2)c(O[C@@H]2O[C@H](CO)[C@@H](O)[C@H](O)[C@H]2O)nn1C(C)C [Reference Example 72, 3-(β-D-Glucopyranosyloxy)-4-[(4-isopropoxyphenyl)methyl]-1-isopropyl-5-methylpyrazole] | 6.43
COc1ccc(Cc2c(O[C@@H]3O[C@H](CO)[C@@H](O)[C@H](O)[C@H]3O)n[nH]c2C(F)(F)F)cc1 [Reference Example 50, 3-(β-D-Glucopyranosyloxy)-4-[(4-methoxyphenyl)methyl]-5-trifluoromethyl-1H-pyrazole] | 6.38
COc1ccc(Cc2c(O[C@@H]3O[C@H](CO)[C@@H](O)[C@H](O)[C@H]3O)n[nH]c2C)cc1 [Reference Example 51, 3-(β-D-Glucopyranosyloxy)-4-[(4-methoxyphenyl)methyl]-5-methyl-1H-pyrazole] | 6.42
